{"source": "paper PMC7558026", "about": "“Exploring and applying the substrate promiscuity of a C-glycosyltransferase in the chemo-enzymatic synthesis of bioactive C-glycosides” (Nature Communications, 2020)", "key": {"SGLT2": {"molecular_target": "T1, SGLT2 (Homo sapiens, UniProt P31639)", "T1 construct": "Human full-length SGLT2 cDNA (NM_003041.3) was synthesized; expressed in transfected cells; host or cells: HEK293, retroviral transduction with pMSCVpuro-SGLT2, puromycin selected", "T1 sequence (P31639 1-672)": "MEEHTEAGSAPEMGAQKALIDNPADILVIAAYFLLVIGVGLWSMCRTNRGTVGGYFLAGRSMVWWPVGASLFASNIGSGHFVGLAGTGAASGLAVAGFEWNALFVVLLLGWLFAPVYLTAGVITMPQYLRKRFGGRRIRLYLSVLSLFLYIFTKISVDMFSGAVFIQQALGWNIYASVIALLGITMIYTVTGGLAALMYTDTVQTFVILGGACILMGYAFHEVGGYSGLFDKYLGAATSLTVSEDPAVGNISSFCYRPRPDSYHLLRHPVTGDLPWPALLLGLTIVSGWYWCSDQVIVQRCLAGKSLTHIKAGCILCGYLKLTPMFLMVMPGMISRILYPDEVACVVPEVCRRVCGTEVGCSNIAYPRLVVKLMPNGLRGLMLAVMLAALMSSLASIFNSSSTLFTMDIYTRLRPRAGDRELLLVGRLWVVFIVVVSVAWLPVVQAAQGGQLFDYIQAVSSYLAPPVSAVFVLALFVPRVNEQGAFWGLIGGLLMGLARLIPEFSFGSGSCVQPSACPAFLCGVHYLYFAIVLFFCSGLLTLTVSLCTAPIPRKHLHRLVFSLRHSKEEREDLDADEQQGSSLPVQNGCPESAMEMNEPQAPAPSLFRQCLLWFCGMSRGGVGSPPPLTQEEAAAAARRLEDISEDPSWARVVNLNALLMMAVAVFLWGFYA", "assay": "1-NBDG uptake in HEK293 cells stably expressing SGLT2", "format": "cell-based", "settings": "HEK293, compound at 10 μM; triplicate; read-out: SGLT2 inhibitory rates"}, "[1]": {"tested_on": "Influenza A/WSN/33 (H1N1)", "assay": "microbe, parasite or virus in culture", "format": "cell-based", "settings": "— = no inhibition activity"}, "AbCGT": {"molecular_target": "AbCGT (Aloe vera, UniProt A0A7G9P699)", "sequence (A0A7G9P699 entry or part of it)": "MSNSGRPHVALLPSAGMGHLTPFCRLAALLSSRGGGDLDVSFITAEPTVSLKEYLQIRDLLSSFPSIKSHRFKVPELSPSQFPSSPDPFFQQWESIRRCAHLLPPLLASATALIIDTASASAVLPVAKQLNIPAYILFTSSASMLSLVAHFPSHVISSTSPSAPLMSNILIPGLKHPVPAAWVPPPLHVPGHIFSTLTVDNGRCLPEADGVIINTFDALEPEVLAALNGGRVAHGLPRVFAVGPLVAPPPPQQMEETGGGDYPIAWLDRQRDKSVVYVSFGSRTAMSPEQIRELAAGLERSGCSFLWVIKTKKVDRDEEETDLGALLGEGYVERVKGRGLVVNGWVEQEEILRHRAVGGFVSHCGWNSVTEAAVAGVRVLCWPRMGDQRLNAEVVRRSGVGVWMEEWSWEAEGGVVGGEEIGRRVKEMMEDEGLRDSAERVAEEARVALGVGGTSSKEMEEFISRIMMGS", "assay": "Glycosyltransferase activity assay, purified AbCGT (wild type) with aglycon acceptors and UDP-Glc", "format": "biochemical, Aloe barbadensis", "settings": "fig. 2b, purified AbCGT, redesigned substrates; Reaction-1 to -3"}, "E. coli-AbCGT": {"tested_on": "E. coli-AbCGT", "assay": "Glycosylation by whole-cell biocatalyst E. coli-AbCGT", "format": "cell-based", "settings": "fig. 2c, 30 °C, M9 medium, 12 h, 0.25 mM acceptor; Reaction-1 to -3", "procedure": "The induced cells of E. coli-AbCGT were harvested by centrifugation at 3000 × g for 5 min at 4 °C and washed with ddH2O. Pellets were resuspended by M9 minimal medium containing 2% glucose to appropriate cell density (OD600 = 3.0). Prepared whole-cell biocatalyst of E. coli-AbCGT (500 μL) was then added to 2-mL tubes containing various acceptors at a concentration of 0.25 mM. The mixture was incubated at 30 °C for 12 h with shaking (200 rpm). The reactions were analyzed using GT activity assays as described above. For quantification, three parallel assays were routinely carried out."}, "in vitro": {"assay": "in vitro", "settings": "human"}}, "note": "“And” between values parts separate entries of the source, which are not always exact repeats. Equal values may be shown once."}
{"smiles": "Oc1cc(O)c(Cc2ccc3nccnc3c2)c(O)c1", "note": "[Compound 44]", "values": [{"measurement": "inhibition at 10 µM", "setting": "SGLT2", "result": 0.2, "unit": "%"}, {"measurement": "inhibition at 20 µM", "setting": "[1]; final concentration 20 μM, read-out: Inhibitory Rates, anti-influenza A virus activity", "result": "< 0", "unit": "%"}, {"measurement": "IC50", "setting": "[1]; read-out: IC50, anti-influenza A virus activity", "result": "> 20", "unit": "µM"}, {"measurement": "conversion rates, Purified Enzyme", "setting": "AbCGT", "result": 100, "unit": "%"}, {"measurement": "conversion rates, Whole cells", "setting": "E. coli-AbCGT", "result": "7.1% and 12.8% and 10.1%"}, {"measurement": "CC50", "setting": "in vitro", "result": "> 200", "unit": "µM"}]}
